# Assay results from paper PMC9960274, “Peptidic Inhibitors and a Fluorescent Probe for the Selective Inhibition and Labelling of Factor XIIIa Transglutaminase” (Molecules, 2023).
# Entries after “also recorded” stand apart in the source; their conditions may differ. Starred links: 1 amine or outer side, 2 acyl side, 3 side chain; linkers in the order of their positions; H or OH if unused. Non-standard residues stand in square brackets, D forms with d. Residues, ends and D or L forms follow the SMILES beside them. *: point of attachment. RhodamineB = CCN(CC)c1ccc2c(-c3ccccc3C(=O)*)c3ccc(=[N+](CC)CC)cc-3oc2c1; X1 = COC(=O)/C=C/CC[C@H](N[*:1])C(=O)[*:2]; X2 = COC(=O)C=CCCC[C@H](N[*:1])C(=O)[*:2]; X3 = COC(=O)C=CC[C@H](N[*:1])C(=O)[*:2]; Nle = CCCC[C@H](N)C(=O)O; Orn = NCCC[C@H](N)C(=O)O; Dab = NCC[C@H](N)C(=O)O; Acryloyl = C=CC(=O)*; Ahx = NCCCCCC(=O)O
# Target: T1, Human TG2 (Homo sapiens, UniProt P21980)
# T1 construct: made in house
# T1 sequence (P21980 1-687): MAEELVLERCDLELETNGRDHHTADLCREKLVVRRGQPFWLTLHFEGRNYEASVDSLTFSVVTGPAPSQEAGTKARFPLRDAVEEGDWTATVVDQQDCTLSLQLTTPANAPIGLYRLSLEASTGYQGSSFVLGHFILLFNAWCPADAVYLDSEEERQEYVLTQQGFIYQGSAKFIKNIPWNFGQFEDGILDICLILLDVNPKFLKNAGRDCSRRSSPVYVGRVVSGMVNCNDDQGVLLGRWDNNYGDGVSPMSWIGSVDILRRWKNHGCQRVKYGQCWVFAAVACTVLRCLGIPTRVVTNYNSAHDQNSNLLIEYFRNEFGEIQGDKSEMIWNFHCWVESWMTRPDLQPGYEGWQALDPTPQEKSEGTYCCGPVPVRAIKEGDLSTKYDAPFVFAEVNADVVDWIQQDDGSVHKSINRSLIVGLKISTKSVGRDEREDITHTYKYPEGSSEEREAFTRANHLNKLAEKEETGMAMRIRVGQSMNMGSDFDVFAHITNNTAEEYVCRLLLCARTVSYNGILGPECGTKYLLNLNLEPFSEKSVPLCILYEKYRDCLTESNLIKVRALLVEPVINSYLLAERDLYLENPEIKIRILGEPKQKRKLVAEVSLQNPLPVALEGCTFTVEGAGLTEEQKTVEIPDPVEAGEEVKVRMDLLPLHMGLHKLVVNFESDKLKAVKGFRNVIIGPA
# Experiment: Colorimetric AL5 transamidase assay of TG2 inhibition kinetics
# Format: biochemical
# Details: for TG2 Inh. Mode: Irrev = irreversible, None = no inhibition detected up to 350 μM; for kinact/KI / kinact: irreversible inhibition; for kinact: saturation fit; for TG2 inhibition: up to 360 µM
# Experimental: All inhibitors synthesised herein were evaluated for inhibition against FXIIIa, using the fluorescence-quenched A101 isopeptidase assay, and against TG2, using the colorimetric AL5 transamidase assay. The assay substrates A101 and AL5 both present labile bonds that are cleaved by the activities of their corresponding transglutaminases, resulting in the release of a fluorophore or chromophore moiety, respectively. The rate of consumption of these assay substrates, indicated by increases in fluorescence or absorbance over time, can be detected for measuring enzyme activity. Assays were run in duplicate at constant reporter substrate concentration with varying concentrations of inhibitor. The type of inhibition was determined through visual inspection of the fluorescence-time curvature; termination of the enzymatic reaction with the substrate at a plateau lower than the no-inhibitor positive control is indicative of irreversible inhibition. On the other hand, convergence to a common plateau indicates reversible inhibition.
# A colorimetric transamidase assay using chromogenic substrate AL5 (Cbz-Glu(ɣ-p-nitrophenyl ester)Gly-OH) was used to determine TG2 inhibition kinetics as described previously. In brief, assays were conducted at 25 °C in 96-well plates, and absorbance at 405 nm was monitored continuously using a BioTek Synergy 4 plate reader. For each compound, 6 inhibitor concentrations were tested, along with positive (no inhibitor) and negative (no enzyme, no inhibitor) controls. All assays were run in duplicate as separate independent experiments. Human TG2 expressed and purified as described previously and stored in aqueous buffer at −80 °C, was first thawed and diluted to a working concentration of 50 mU/mL in the buffer. The diluted enzyme solution was stored on ice. The appropriate amount of distilled water, 125 μL of aqueous buffer (111 mM MOPS, 15.6 mM CaCl2, pH 6.9), the desired amount of inhibitor (from a DMSO stock solution), and 5.0 μL of AL5 (from a 5.56 mM DMSO solution) were added in that order to 7 Eppendorf tubes to reach final volumes of 250 μL per tube. After mixing thoroughly, 180 μL of the mixture from each tube was transferred to plate wells. To initiate the assay, 20 μL of the diluted TG2 solution was added using a multichannel pipette to each well except the negative control, which was treated with water. The final reaction conditions were pH 6.9, 50.0 mM MOPS, 7.0 mM CaCl2, 100 μM AL5, and 5 mU/mL TG2. […] Data collection was then initiated after mixing by quick aspiration, and the assay was allowed to run for 20 min.
# The type of inhibition for both TG2 and FXIIIa was primarily determined by visual inspection of kinetic traces. […] This assumption was tested and validated with inhibitor 47 through an A101 substrate spike experiment. Additional A101 (5 μL of 4000 μM stock in DMSO) was added to enzymatic reactions lacking in inhibitor (positive control) and pre-treated with inhibitor (50, 100, 150, 200 μM) after the initial reactions were complete and fluorescence plateaus had been reached. Data collection at 37 °C was re-commenced immediately after the addition, and fluorescence was monitored over time as previously described. On the other hand, inhibitors producing kinetic curves in which earlier and lower plateaus in fluorescence or absorbance were observed as inhibitor concentration was increased were assumed to be operating through irreversible time-dependent covalent inactivation. This assumption was tested and validated with inhibitor 23 through an A101 substrate spike experiment in which an additional 5 μL of A101 substrate stock solution (4000 μM in DMSO) was added to the positive control and highest inhibitor concentration (200 μM) reaction. […]
# [1] = small molecule series, irreversible KI for 87 and 88
Compound,TG2 Inh. Mode,TG2 inhibition (small molecule series),other results
"C=CC(=O)NCC[C@H](NC(=O)[C@@H](CC(=O)O)NC(C)=O)C(=O)N[C@@H](CCCC)C(=O)N[C@@H](CCCC)C(=O)N[C@@H](CC(C)C)C(=O)N1CCC[C@H]1C(=O)N[C@@H](Cc1c[nH]c2ccccc12)C(=O)N1CCC[C@H]1C(=O)O [Compound 12, Ac-D-Asp-Dab(Acrylamide)-Nle-Nle-Leu-Pro-Trp-Pro-OH] (Ac-[dD][Dab](Acryloyl)[Nle][Nle]LPWP-OH)",No inhibition; also recorded: None **,,
COC(=O)C=CCCC(NC(=O)c1ccccc1C(=O)O)C(=O)N1CCN(C(=O)c2cccc3ccccc23)CC1 (stereo not drawn) [Compound 88],,,kinact/KI: 104 M⁻¹ s⁻¹; kinact: 0.0022 s⁻¹; KI (inactivation) [1]: 21.2 ± 8.96 µM; Ki [1]: 21.2 ± 9 µM
"C=CC(=O)NCC(NC(=O)CCC(=O)O)C(=O)N1CCN(S(=O)(=O)c2cccc3c(N(C)C)cccc23)CC1 [Compound 75, Succinyl-L-Dap(Acryl)-Piperazine-Dansyl]",,No inhibition,
C=CC(=O)NCC(NC(=O)CC(=O)O)C(=O)N1CCN(S(=O)(=O)c2cccc3c(N(C)C)cccc23)CC1 (stereo not drawn) [Compound 71],,No inhibition,
CCCC[C@H](NC(=O)[C@H](CC=CC(=O)OC)NC(=O)[C@@H](CC(=O)O)NC(C)=O)C(=O)N[C@@H](CCCC)C(=O)N[C@@H](CC(C)C)C(=O)N1CCC[C@H]1C(=O)N[C@@H](Cc1c[nH]c2ccccc12)C(=O)N1CCC[C@H]1C(=O)O [Compound 45] (Ac-[dD][X3][Nle][Nle]LPWP-OH),No inhibition; also recorded: lack of inhibition; also recorded: None **,,
CCCC[C@H](NC(=O)[C@H](CC/C=C/C(=O)OC)NC(=O)[C@@H](CC(=O)O)NC(=O)CCCCCNC(=O)[C@@H]1CCCN1C(=O)c1ccccc1-c1c2ccc(=[N+](CC)CC)cc-2oc2cc(N(CC)CC)ccc12)C(=O)N[C@@H](CCCC)C(=O)N[C@@H](CC(C)C)C(=O)N1CCC[C@H]1C(=O)N[C@@H](Cc1c[nH]c2ccccc12)C(=O)N1CCC[C@H]1C(=O)O [Compound 93] (RhodamineB-P[Ahx][dD][X1][Nle][Nle]LPWP-OH),,,kinact/KI: 325 M⁻¹ s⁻¹
CCCC[C@H](NC(=O)[C@H](CCCC=CC(=O)OC)NC(=O)[C@@H](CC(=O)O)NC(C)=O)C(=O)N[C@@H](CCCC)C(=O)N[C@@H](CC(C)C)C(=O)N1CCC[C@H]1C(=O)N[C@@H](Cc1c[nH]c2ccccc12)C(=O)N1CCC[C@H]1C(=O)O [Compound 47] (Ac-[dD][X2][Nle][Nle]LPWP-OH),Irrev,,kinact/KI: 530 M⁻¹ s⁻¹
C=CC(=O)NCC(NS(=O)(=O)CC(=O)O)C(=O)N1CCN(S(=O)(=O)c2cccc3c(N(C)C)cccc23)CC1 (stereo not drawn) [Compound 79],,No inhibition,
C=CC(=O)NCCCC[C@H](NC(=O)[C@@H](CC(=O)O)NC(C)=O)C(=O)N[C@@H](CCCC)C(=O)N[C@@H](CCCC)C(=O)N[C@@H](CC(C)C)C(=O)N1CCC[C@H]1C(=O)N[C@@H](Cc1c[nH]c2ccccc12)C(=O)N1CCC[C@H]1C(=O)O [Compound 14] (Ac-[dD]K(Acryloyl)[Nle][Nle]LPWP-OH),No inhibition; also recorded: None **,,
"C=CC(=O)NCC(NC(=O)CCC(=O)O)C(=O)N1CCN(S(=O)(=O)c2cccc3ccccc23)CC1 [Compound 76, Succinyl-L-Dap(Acryl)-Piperazine-Sulfonyl-Naphthalene]",,No inhibition,
"C=CC(=O)NCC(NC(=O)CCC(=O)O)C(=O)N1CCN(C(=O)c2cccc3ccccc23)CC1 [Compound 77, Succinyl-L-Dap(Acryl)-Piperazine-Naphthoyl]",,No inhibition,
COC(=O)C=CCCC(NC(=O)CCC(=O)O)C(=O)N1CCN(C(=O)c2cccc3ccccc23)CC1 (stereo not drawn) [Compound 87],,,kinact/KI: 139 M⁻¹ s⁻¹; kinact: 0.00199 s⁻¹; Ki [1]: 14.3 ± 7 µM
Ac-D-Asp-Dap(Acrylamide)-Nle-Nle-Leu-Pro-Trp-Pro-OH [Compound 11],No inhibition; also recorded: None **,,
C=CC(=O)NCCC[C@H](NC(=O)[C@@H](CC(=O)O)NC(C)=O)C(=O)N[C@@H](CCCC)C(=O)N[C@@H](CCCC)C(=O)N[C@@H](CC(C)C)C(=O)N1CCC[C@H]1C(=O)N[C@@H](Cc1c[nH]c2ccccc12)C(=O)N1CCC[C@H]1C(=O)O [Compound 13] (Ac-[dD][Orn](Acryloyl)[Nle][Nle]LPWP-OH),No inhibition; also recorded: None **,,
C=CC(=O)NCC(NC(=O)C1(C(=O)OC)CC1)C(=O)N1CCN(S(=O)(=O)c2cccc3c(N(C)C)cccc23)CC1 (stereo not drawn) [Compound 73],,No inhibition,
"C=CC(=O)NCC(NC(=O)C1(C(=O)O)CC1)C(=O)N1CCN(S(=O)(=O)c2cccc3c(N(C)C)cccc23)CC1 [Compound 74, Acid-Cyclopropyl-L-Dap(Acryl)-Piperazine-Dansyl]",,No inhibition,
C=CC(=O)NC(CNC(=O)CCC(=O)O)C(=O)N1CCN(C(=O)c2cccc3ccccc23)CC1 (stereo not drawn) [Compound 84],,No inhibition,
C=CC(=O)NCC(NC(=O)CC(=O)O)C(=O)N1CCN(C(=O)c2cccc3ccccc23)CC1 (stereo not drawn) [Compound 72],,No inhibition,
